Key:
[1] = Pharmacokinetics of HRX215 in mice; type: in vivo, C57BL/6 wildtype mice; settings: 30 mg/kg p.o.
[2] = tested on: C57BL/6 WT mice; assay: 4-week treatment/toxicity study in wildtype mice; type: in vivo, mouse; settings: 10 mg/kg, vs vehicle
[3] = tested on: C57BL/6 WT mice; assay: Short-term CCl4 liver damage model; type: in vivo, mouse; settings: 0.4, 2, 10 mg/kg p.o., 48 h after CCl4, vs vehicle
[4] = tested on: C57BL/6 WT mice; assay: Short-term GAN-NASH model; type: in vivo, mouse; settings: 10 mg/kg daily, 12 weeks, vs vehicle
[5] = tested on: C57BL/6 WT mice; assay: Long-term GAN-NASH HCC model; type: in vivo, mouse
[6] = tested on: NrasG12V Cdkn2aARF-/- HCC cells; assay: HCC cell proliferation and trypan blue cell death; type: cell-based, murine; settings: HRX215 10 μM vs DMSO, up to 72 h
[7] = tested on: NrasG12V Trp53-/- HCC cells; assay: HCC cell proliferation and trypan blue cell death; type: cell-based, murine; settings: HRX215 10 μM vs DMSO, up to 72 h
[8] = tested on: pigs; assay: 85% hepatectomy; type: in vivo, pig
[9] = IND-enabling GLP safety pharmacology; type: in vivo, rats, dogs; settings: GLP studies
[10] = 4-week GLP toxicity study; settings: both, Wistar Han, rat, in vivo, po
[11] = 4-week GLP toxicity study; settings: both, beagle, dog, in vivo, po
[12] = First-in-human phase I trial, pharmacokinetics; type: in vivo; settings: for Tmax: male, plasma, oral, 50 mg, 50 mg single dose
[13] = tested on: healthy male volunteers; assay: First-in-human phase I trial, safety and tolerability; type: in vivo
[14] = tested on: C57BL/6 WT mice; assay: Partial hepatectomy in wildtype mice; settings: 48 h after partial hepatectomy
[15] = tested on: C57BL/6 WT mice; assay: CCl4 liver-damage; settings: 10 mg/kg p.o., CCl4 3 weeks, 48 h after PH

## CCCS(=O)(=O)Nc1c(F)ccc(C(=O)c2n[nH]c3ncc(-c4ccncc4)cc23)c1F [HRX215]
[1]
  t(1/2), elimination half-life: 3.4 to 3.9 h
[2]; 4 weeks
  complete blood counts: No significant changes were detected
[2]
  untargeted metabolomics of plasma and liver: no safety relevant changes were detected
[3]
  hepatocyte death (TUNEL): significantly reduced hepatocyte death
[4]
  numbers of senescent cells in NASH livers: found no differences
[5]; 10 mg/kg daily, 12 weeks
  hepatic inflammation and hepatocyte ballooning: no reduction of hepatic inflammation and hepatocyte ballooning
  hepatocyte proliferation (Ki67): slightly increased hepatocyte proliferation
  liver fibrosis: found reduced in HRX215 treated livers, but results missed statistical significance
  overall hepatic lipid content: significant reduction of the overall hepatic lipid content
  tumor size: tendency toward a reduction of tumor size
[5]; 10 mg/kg daily, 12 weeks, vs baseline and vehicle
  number of tumor nodules per liver: did not result in a higher number of tumor nodules per liver
[5]; 10 mg/kg daily, 12 weeks, vs vehicle
  numbers of dysplastic premalignant lesions: did not reveal significant differences
[5]; non-tumor bearing liver parts
  NAS score development: more animals with an improved NAS score and less animals with a worsened NAS score
[6]
  cell proliferation: significantly reduced cell proliferation
[7]
  cell proliferation: significantly reduced cell proliferation
[8]; pigs, 85% hepatectomy
  aspartate aminotransferase: only transiently increased after surgery
  bilirubin plasma levels: only a transient rise with a subsequent drop
  intracranial pressure (ICP) after surgery: did not show an increase in ICP values
  plasma ammonia: prevented an increase of plasma ammonium
[8]; post-surgery treatment group (start 12 h after surgery)
  animals with normal behavior that survived: 5 out of 6
[8]; pre-surgery treatment group (start 12 h before surgery)
  animals with normal behavior that survived: 4 out of 6
[9]
  effect on the cardiovascular, neurological, or respiratory system: absence of any effect
[10]
  NOAEL at 4 weeks: 300 mg/kg/day
[11]
  NOAEL at 4 weeks: 250 mg/kg/day
[12]; ascending doses
  exposure (Cmax and AUC) versus dose: increased proportionally with ascending doses
[12]; fasting
  Tmax: 1.2 h
[12]; fed
  Tmax: 3.9 h
[13]; HRX215 groups, n = 36
  mild to moderate adverse effects, percentage: 36.1%
  number of mild to moderate adverse effects (subjects/group): 13/36
[13]; single and multiple doses 5-500 mg
  severe or serious adverse events: no severe or serious adverse events were reported
[13]; vs placebo
  complete blood counts: no significant differences
[14]; 0.4 mg/kg p.o.
  proliferating hepatocytes (Ki67): 15.38%
[14]; 2 mg/kg p.o.
  proliferating hepatocytes (Ki67): 15.15%
[14]; 10 mg/kg p.o.
  proliferating hepatocytes (Ki67): 26.3%
[15]
  hepatocyte proliferation upon partial hepatectomy in fibrotic livers: enhance hepatocyte proliferation
